From US20230028880A1, “CD38-BINDING AGENTS AND USES THEREOF” (Biohaven Therapeutics Ltd., priority 2019, published 2023)
“And” between values parts separate entries of the source, which are not always exact repeats. Identical values can stand only once. Where no end group is shown, it is not given here. [ ]: non-standard residue; d: D form. Bip = N[C@@H](Cc1ccc(-c2ccccc2)cc1)C(=O)O; Ahp(2) = CCCCC[C@H](N)C(=O)O

Legend:
Daudi cells [1] = test: KILR ADCC killing assay: KILR-transfected Daudi cells with purified NK cells (% dead cells); type: cell-based; settings: for % dead cells, KILR ADCC killing assay: KILR Daudi cells with purified NK cells, duplicate columns
Excerpt: In some embodiments, CD38-ABT ARMs bind to target cells and antibodies, e.g., human antibodies. In some embodiments, such ternary structures present antibodies to effector cells such as NK cell and bind to, e.g., CD16a receptors. […] Daudi cells were transfected with KILR reporter construct (DiscoverX #97-0002). An attenuated lentivirus was designed to deliver a Moloney Murine Leukemia Virus (MMLV) engineered to drive expression of a housekeeping gene tagged with Enhanced ProLabel (ePL) a beta-Galactosidase (beta-gal) reporter fragment. This construct was designed to remain inside cells. Death leads to the release of the KILR reporter protein into the medium. Detection reagent (DiscoverX #97-0001L) contained the complementing beta-gal reporter fragment enzyme acceptor (EA). The two components combined to generate a chemiluminescent signal.

[2] = tested on: Effector cells (ADCC reporter cells) with Daudi cells; test: ADCC reporter assay: Daudi cells, IVIG and ADCC reporter effector cells (luciferase, RLU); type: cell-based; settings: IVIG; for EC50: ADCC reporter assay; for Luminescence, ADCC reporter assay: 18 h, duplicate columns
Description: Daudi (ATCC CCL-213) cells were resuspended in Opti-MEM (Thermo Fisher Scientific #31985070), counted (Life Technologies Countless II cell counter) and plated (5,000 cells in 25 uL/well; Corning plates: 3917). Compounds w diluted in DMSO (MP 191418) to 1000× the starting concentration used in the assay into a 96 well polypropylene plate (Corning 3357). They were then serially diluted in ½ log increments to generate 8 concentrations in DMSO (assay dependent). These DMSO stocks were then step diluted 1/250 into Opti-MEM. Step diluted compound range was then added into the polypropylene assay plate 25 uL/well. The human antibody solution (Grifols IVIG Fleogogamma #61953-0005-2) was diluted to 40 ug/mL and added 25 uL/well. Effector cells (ADCC reporter cells—Promega kit: G7018) were added 37,500 in 25 uL/well. The assay was then incubated 18 h at 37° C. Following the induction period, the plate was equilibrated to 25° C. followed the addition of the luciferase substrate (75 uL/well, 1 vial in 10 mL of Bio-Glo assay buffer, Promega kit: G7018). The luminescence was measured (Biotek Synergy H1 microplate reader).

Daudi cells [3] = test: Ternary binding assay: recruitment of PE-labeled human IgG1k to Daudi cells (flow cytometry, MFI); type: cell-based; settings: for MFI, recruitment of PE-labeled human IgG1k to Daudi cells: duplicate columns
Description: Various technologies can be utilized to assess and/or characterize recruitment of antibodies to target cells, e.g., cancer cells. One such assay is a ternary binding assay. An exemplary protocol is described herein. Compounds were diluted in DMSO (MP 191418) to 1000× the starting concentration used in the assay into a 96 well polypropylene plate (Corning 3357). They were then serially diluted in ½ log increments to generate 8-12 concentrations in DMSO (assay dependent). These DMSO stocks were then step diluted 1/100 into PBS (VWR Cat. #20012043). Step diluted compound range was then added into the polypropylene assay plate 1/10 the volume of the assay volume. Daudi (ATCC CCL-213), a non-adherent cell line, were counted and centrifuged and resuspended at a concentration of 100,000 cells per 90 ul in Flow buffer: 1% BSA (American Bio AB01088-00100); 0.5 mM EDTA (VWR 45001-122); PBS (VWR Cat. #20012043) with 11.1 ug/mL human IgG1k Phycoerythrin labeled (SouthernBiotech #0151K-09 PE). The cells were then added into the polypropylene plate with the step diluted compounds and incubated at 37° C. for 30 min. At the end of the incubation, the cells were centrifuged and washed 2× with How buffer containing 0.5% Tween 20 (BP337-500). Samples were analyzed on a BD FacsCelesta. Mean fluorescence was analyzed using Graphpad Prism and curves were fit using log(inhibitor) vs. response—Variable slope (four parameters).

CD38 = target: T1, CD38 (human, UniProt P28907 43-300, limits assumed); test: ELISA; larger values represent binding
T1 construct: also called cluster of differentiation 38; cyclic ADP ribose hydrolase

CCCCC[C@@H]1NC(=O)[C@H](CCCNC(=N)N)NC(=O)[C@H](C)NC(=O)CSC[C@@H](C(=O)NCCCC(=O)N[C@@H](CC(=O)O)C(=O)N[C@H]2CSSC[C@@H](C(=O)N[C@H](C(N)=O)[C@@H](C)O)NC(=O)[C@H](Cc3c[nH]c4ccccc34)NC(=O)[C@H](C(C)C)NC(=O)[C@H](CC(C)C)NC(=O)[C@H](CCC(=O)O)NC(=O)CNC(=O)[C@H](CC(C)C)NC(=O)[C@H](Cc3c[nH]cn3)NC(=O)[C@H](Cc3c[nH]c4ccccc34)NC(=O)[C@H](C)NC2=O)NC(=O)[C@H](CC(=O)O)NC(=O)[C@H](CCCCC)NC(=O)[C@H](Cc2ccc(-c3ccccc3)cc2)NC(=O)[C@H](CC(C)C)NC(=O)[C@H](C(C)C)NC(=O)CNC(=O)[C@H](CC(=O)O)NC(=O)[C@H](Cc2c[nH]cn2)NC(=O)[C@H](Cc2ccc(O)cc2)NC1=O [I-30]
% dead cells, KILR ADCC killing assay (Daudi cells [1]; compound 1 nM): 14.3% and 14.7%
% dead cells, KILR ADCC killing assay (Daudi cells [1]; compound 3 nM): 14.7% and 15.7%
% dead cells, KILR ADCC killing assay (Daudi cells [1]; compound 10 nM): 14.1%
% dead cells, KILR ADCC killing assay (Daudi cells [1]; compound 100 nM): 17.1% and 18.1%
% dead cells, KILR ADCC killing assay (Daudi cells [1]; compound 300 nM): 19% and 20.6%
% dead cells, KILR ADCC killing assay (Daudi cells [1]; compound 1000 nM): 19.2% and 20%
EC50 [2]: 12 nM
Luminescence, ADCC reporter assay ([2]; compound 1 nM): 4174 RLU and 4217 RLU
Luminescence, ADCC reporter assay ([2]; compound 3 nM): 4269 RLU and 4452 RLU
Luminescence, ADCC reporter assay ([2]; compound 10 nM): 11442 RLU and 11535 RLU
Luminescence, ADCC reporter assay ([2]; compound 30 nM): 17189 RLU and 17066 RLU
Luminescence, ADCC reporter assay ([2]; compound 100 nM): 20600 RLU and 19749 RLU
Luminescence, ADCC reporter assay ([2]; compound 300 nM): 22074 RLU and 21976 RLU
Luminescence, ADCC reporter assay ([2]; compound 1000 nM): 22085 RLU and 21589 RLU
Luminescence, ADCC reporter assay ([2]; compound 3000 nM): 19456 RLU and 17760 RLU

CCCCC[C@@H]1NC(=O)[C@H](CCCNC(=N)N)NC(=O)[C@H](C)NC(=O)CSC[C@@H](C(=O)NCCOCCOCCC(=O)NCCOCCOCCC(=O)N[C@@H](CC(=O)O)C(=O)N[C@H]2CSSC[C@@H](C(=O)N[C@H](C(=O)O)[C@@H](C)O)NC(=O)[C@H](Cc3c[nH]c4ccccc34)NC(=O)[C@H](C(C)C)NC(=O)[C@H](CC(C)C)NC(=O)[C@H](CCC(=O)O)NC(=O)CNC(=O)[C@H](CC(C)C)NC(=O)[C@H](Cc3c[nH]cn3)NC(=O)[C@H](Cc3c[nH]c4ccccc34)NC(=O)[C@H](C)NC2=O)NC(=O)[C@H](CC(=O)O)NC(=O)[C@H](CCCCC)NC(=O)[C@H](Cc2ccc(-c3ccccc3)cc2)NC(=O)[C@H](CC(C)C)NC(=O)[C@H](C(C)C)NC(=O)CNC(=O)[C@H](CC(=O)O)NC(=O)[C@H](Cc2c[nH]cn2)NC(=O)[C@H](Cc2ccc(O)cc2)NC1=O [I-34]
% dead cells, KILR ADCC killing assay (Daudi cells [1]; compound 1 nM): 13.9% and 15.8%
% dead cells, KILR ADCC killing assay (Daudi cells [1]; compound 3 nM): 13.6% and 13.4%
% dead cells, KILR ADCC killing assay (Daudi cells [1]; compound 10 nM): 14.9% and 14.5%
% dead cells, KILR ADCC killing assay (Daudi cells [1]; compound 30 nM): 17.8% and 16.4%
% dead cells, KILR ADCC killing assay (Daudi cells [1]; compound 100 nM): 19.7% and 16.9%
% dead cells, KILR ADCC killing assay (Daudi cells [1]; compound 300 nM): 18.9% and 18.8%
% dead cells, KILR ADCC killing assay (Daudi cells [1]; compound 1000 nM): 15.3% and 15.9%
% dead cells, KILR ADCC killing assay (Daudi cells [1]; compound 3000 nM): 14.2% and 13.5%
EC50 [2]: 6.7 nM
Luminescence, ADCC reporter assay ([2]; compound 1 nM): 4355 RLU and 4667 RLU
Luminescence, ADCC reporter assay ([2]; compound 3 nM): 5459 RLU and 5627 RLU
Luminescence, ADCC reporter assay ([2]; compound 10 nM): 13353 RLU and 13815 RLU
Luminescence, ADCC reporter assay ([2]; compound 30 nM): 16833 RLU and 17160 RLU
Luminescence, ADCC reporter assay ([2]; compound 100 nM): 19999 RLU and 21759 RLU
Luminescence, ADCC reporter assay ([2]; compound 300 nM): 19948 RLU and 20759 RLU
Luminescence, ADCC reporter assay ([2]; compound 1000 nM): 12953 RLU and 13376 RLU
Luminescence, ADCC reporter assay ([2]; compound 3000 nM): 8601 RLU and 9733 RLU
MFI, recruitment of PE-labeled human IgG1k to Daudi cells (Daudi cells [3]; compound 3 nM): 2094 and 1853
MFI, recruitment of PE-labeled human IgG1k to Daudi cells (Daudi cells [3]; compound 10 nM): 11368 and 6266
MFI, recruitment of PE-labeled human IgG1k to Daudi cells (Daudi cells [3]; compound 30 nM): 15113 and 15626
MFI, recruitment of PE-labeled human IgG1k to Daudi cells (Daudi cells [3]; compound 100 nM): 30043 and 19748
MFI, recruitment of PE-labeled human IgG1k to Daudi cells (Daudi cells [3]; compound 300 nM): 24939 and 24944
MFI, recruitment of PE-labeled human IgG1k to Daudi cells (Daudi cells [3]; compound 1000 nM): 27313 and 25699
MFI, recruitment of PE-labeled human IgG1k to Daudi cells (Daudi cells [3]; compound 3000 nM): 19464 and 23695

I-38: "A mixture of compound 6 ... compound 2 ... DIEA ... to get compound I-38 (Q1 ...) and compound I-38 (Q2 ...)" (ARXYHDGVLXXDCXXXKXDCAWHLGELVWCT; not fully specified; D-residues; cyclised or stapled)
EC50 (Daudi cells [1]; KILR ADCC killing assay, Daudi cells with purified NK cells): > 3000 nM
% dead cells, KILR ADCC killing assay (Daudi cells [1]; compound 1 nM): 10.4% and 10.9%
% dead cells, KILR ADCC killing assay (Daudi cells [1]; compound 3 nM): 10.2% and 10.7%
% dead cells, KILR ADCC killing assay (Daudi cells [1]; compound 30 nM): 10.6% and 11.6%
% dead cells, KILR ADCC killing assay (Daudi cells [1]; compound 100 nM): 10.9%
% dead cells, KILR ADCC killing assay (Daudi cells [1]; compound 300 nM): 10.9% and 11.1%
% dead cells, KILR ADCC killing assay (Daudi cells [1]; compound 1000 nM): 11.4% and 11.7%
% dead cells, KILR ADCC killing assay (Daudi cells [1]; compound 3000 nM): 10.3% and 10.8%
IC50 (Daudi cells [3]; ternary binding assay, Daudi cells, human IgG1k PE): > 3000 nM

B1: A R A Y H D G V L Bph Ahp D C (peptide)
peptide: ARAYHDGVL[Bip][Ahp(2)]DC
modifications: not fully specified (N-terminus, bridges); printed as A R A Y H D G V L Bph Ahp D C
notes: Alanine variant at position 3
Binding Assay (ELISA signal) (CD38): 0.11

B2: A R Ahp Y H D G V L Bph Ahp A C (peptide)
peptide: AR[Ahp(2)]YHDGVL[Bip][Ahp(2)]AC
modifications: not fully specified (N-terminus, bridges); printed as A R Ahp Y H D G V L Bph Ahp A C
notes: Alanine variant at position 12
Binding Assay (ELISA signal) (CD38): 1.79

B3: A R Ahp Y H D G V L A Ahp D C (peptide)
peptide: AR[Ahp(2)]YHDGVLA[Ahp(2)]DC
modifications: not fully specified (N-terminus, bridges); printed as A R Ahp Y H D G V L A Ahp D C
notes: Alanine variant at position 10
Binding Assay (ELISA signal) (CD38): 0.09

B4: A R Ahp Y H D G V L Bph A D C (peptide)
peptide: AR[Ahp(2)]YHDGVL[Bip]ADC
modifications: not fully specified (N-terminus, bridges); printed as A R Ahp Y H D G V L Bph A D C
notes: Alanine variant at position 11
Binding Assay (ELISA signal) (CD38): 0.2

B5: A A Ahp Y H D G V L Bph Ahp D C (peptide)
peptide: AA[Ahp(2)]YHDGVL[Bip][Ahp(2)]DC
modifications: not fully specified (N-terminus, bridges); printed as A A Ahp Y H D G V L Bph Ahp D C
Binding Assay (ELISA signal) (CD38): 0.6
